Assay results published in ChEMBL document CHEMBL5375992, “Design and Development of IKZF2 and CK1α Dual Degraders” (J Med Chem, 2023).
Converted amounts (≈) assume the structure as drawn. The source made the active and inactive calls. No cut-off for these calls is given here.

How the values were obtained:
[1] = Solubility of compound in DMSO; format: physicochemical
[2] = biological target: T1, Cereblon/Ikaros (Homo sapiens) (UniProt Q96SW2+Q13422); assay: Protac activity at CRBN/IKZF1 (unknown origin) transfected in HEK293T cells at 100 nM incubated for 24 hrs by flow cytometry analysis relative to control; format: cell-based
[3] = biological target: Protein cereblon/Eukaryotic peptide chain release factor GTP-binding subunit ERF3A (Homo sapiens) (UniProt Q96SW2+P15170); assay: Protac activity at CRBN/GSPT1 (unknown origin) transfected in HEK293T cells at 100 nM incubated for 24 hrs by flow cytometry analysis relative to control; format: cell-based
[4] = biological target: T2, Protein cereblon/Zinc finger protein Helios (Homo sapiens) (UniProt Q96SW2+Q9UKS7); assay: Protac activity at CRBN/IKZF2 (unknown origin) transfected in HEK293T cells at 100 nM incubated for 24 hrs by flow cytometry analysis relative to control; format: cell-based
[5] = biological target: Cereblon/Casein kinase I alpha (Homo sapiens) (UniProt P48729+Q96SW2); assay: Protac activity at CRBN/CK1alpha (unknown origin) transfected in HEK293T cells at 100 nM incubated for 24 hrs by flow cytometry analysis relative to control; format: cell-based
[6] = biological target: T2, Protein cereblon/Zinc finger protein Helios (Homo sapiens); assay: Protac activity at CRBN/IKZF2 in human MOLM-13 cells assessed as relative ratio at 25 uM incubated for 24 hrs by Western blotting analysis relative to DMSO; format: cell-based
[7] = biological target: T2, Protein cereblon/Zinc finger protein Helios (Homo sapiens); assay: Protac activity at CRBN/IKZF2 in human MOLM-13 cells at 25 uM incubated for 24 hrs by Western blotting analysis relative to control; format: cell-based
[8] = biological target: T1, Cereblon/Ikaros (Homo sapiens); assay: Protac activity at CRBN/IKZF1 in human MOLM-13 cells assessed as relative ratio at 25 uM incubated for 24 hrs by Western blotting analysis relative to DMSO; format: cell-based
[9] = biological target: T1, Cereblon/Ikaros (Homo sapiens); assay: Protac activity at CRBN/IKZF1 in human MOLM-13 cells at 25 uM incubated for 24 hrs by Western blotting analysis relative to control; format: cell-based
[10] = Metabolic stability in mouse liver microsomes assessed as intrinsic clearance preincubated with NADPH and UDPGA for 5 mins followed by compound addition and measured upto 60 mins by LC-MS/MS analysis; format: ADME, Microsome; settings: read-out: CLH
[11] = Metabolic stability in mouse liver microsomes assessed as half life preincubated with NADPH and UDPGA for 5 mins followed by compound addition and measured upto 60 mins by LC-MS/MS analysis; format: ADME, Microsome

Sequence of Protein cereblon/Eukaryotic peptide chain release factor GTP-binding subunit ERF3A (Homo sapiens) (P15170 whole entry, looked up): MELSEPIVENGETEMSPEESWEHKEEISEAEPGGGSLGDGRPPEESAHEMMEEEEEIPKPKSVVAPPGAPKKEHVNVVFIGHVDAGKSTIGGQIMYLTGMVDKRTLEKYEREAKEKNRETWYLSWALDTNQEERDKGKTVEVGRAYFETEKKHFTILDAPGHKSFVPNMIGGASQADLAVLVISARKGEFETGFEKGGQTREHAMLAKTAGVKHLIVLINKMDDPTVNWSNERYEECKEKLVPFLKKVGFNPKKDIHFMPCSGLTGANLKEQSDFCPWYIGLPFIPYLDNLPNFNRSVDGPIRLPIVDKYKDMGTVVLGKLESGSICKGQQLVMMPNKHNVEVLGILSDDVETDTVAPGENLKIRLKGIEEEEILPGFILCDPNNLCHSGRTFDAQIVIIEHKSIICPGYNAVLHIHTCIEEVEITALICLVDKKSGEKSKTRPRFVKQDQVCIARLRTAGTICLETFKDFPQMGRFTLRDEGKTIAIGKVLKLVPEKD
Sequence of Protein cereblon/Eukaryotic peptide chain release factor GTP-binding subunit ERF3A (Homo sapiens) (Q96SW2 whole entry, looked up): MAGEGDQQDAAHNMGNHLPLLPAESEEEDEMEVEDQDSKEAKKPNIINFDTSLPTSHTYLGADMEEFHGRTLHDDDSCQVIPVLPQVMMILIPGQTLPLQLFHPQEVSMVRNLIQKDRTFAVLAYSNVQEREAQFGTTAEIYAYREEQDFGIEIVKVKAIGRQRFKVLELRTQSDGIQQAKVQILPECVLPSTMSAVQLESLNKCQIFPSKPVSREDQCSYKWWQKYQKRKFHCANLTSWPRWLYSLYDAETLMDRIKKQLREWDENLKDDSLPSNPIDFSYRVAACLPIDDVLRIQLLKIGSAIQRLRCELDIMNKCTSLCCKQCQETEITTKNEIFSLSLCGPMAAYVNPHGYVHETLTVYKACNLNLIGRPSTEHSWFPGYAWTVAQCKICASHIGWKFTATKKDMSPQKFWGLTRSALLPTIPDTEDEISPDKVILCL
T2 sequence (Q96SW2 whole entry, looked up): as above
T2 sequence (Q9UKS7 whole entry, looked up): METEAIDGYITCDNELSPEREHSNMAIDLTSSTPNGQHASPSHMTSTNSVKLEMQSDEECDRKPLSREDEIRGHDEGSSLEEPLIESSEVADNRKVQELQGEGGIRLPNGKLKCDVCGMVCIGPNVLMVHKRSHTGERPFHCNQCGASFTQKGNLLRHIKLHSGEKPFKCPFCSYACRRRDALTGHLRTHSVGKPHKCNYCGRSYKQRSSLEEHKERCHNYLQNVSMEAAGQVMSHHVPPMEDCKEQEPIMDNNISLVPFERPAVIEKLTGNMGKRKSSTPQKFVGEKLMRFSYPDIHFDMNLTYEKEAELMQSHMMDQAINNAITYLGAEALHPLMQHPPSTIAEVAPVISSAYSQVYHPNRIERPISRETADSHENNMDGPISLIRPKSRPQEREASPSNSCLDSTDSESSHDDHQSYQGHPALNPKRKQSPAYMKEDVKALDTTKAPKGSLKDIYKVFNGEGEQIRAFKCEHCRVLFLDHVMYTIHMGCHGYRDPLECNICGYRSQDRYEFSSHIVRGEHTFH
Sequence of Cereblon/Casein kinase I alpha (Homo sapiens) (P48729 2-337 limits assumed): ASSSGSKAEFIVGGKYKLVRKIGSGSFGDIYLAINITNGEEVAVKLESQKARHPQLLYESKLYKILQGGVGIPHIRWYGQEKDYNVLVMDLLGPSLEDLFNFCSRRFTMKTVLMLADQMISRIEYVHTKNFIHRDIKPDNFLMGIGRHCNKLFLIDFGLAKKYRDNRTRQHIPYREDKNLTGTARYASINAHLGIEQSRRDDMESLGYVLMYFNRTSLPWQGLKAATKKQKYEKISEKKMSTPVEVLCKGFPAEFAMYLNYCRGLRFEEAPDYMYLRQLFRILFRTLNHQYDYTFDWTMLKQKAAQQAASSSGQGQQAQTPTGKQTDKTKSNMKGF
Sequence of Cereblon/Casein kinase I alpha (Homo sapiens) (Q96SW2 whole entry partner): as the sequence (Q96SW2 whole entry, looked up) above

Row | SMILES | Activity [2] | Activity [3] | Activity [4] | Activity [5] | Ratio [6] | Ratio [8] | further results
1 | O=C1CCC(N2Cc3cc(NC(=O)C4=Cc5ccc(OC(F)(F)F)cc5OC4)ccc3C2=O)C(=O)N1 (configuration not stated) | 11% | 6% | 85% | 66% |  |  | solubility ([1]; DMSO, read-out: solubility): 50 mM (≈ 25.1 mg/mL)
2 | O=C1CCC(N2Cc3cc(NC(=O)c4ccc5c(c4)OCCO5)ccc3C2=O)C(=O)N1 (configuration not stated) | 9% | 5% | 38% | 36% |  |  | 
3 | O=C1CCC(N2Cc3cc(NCc4ccc5oc6ccccc6c5c4)ccc3C2=O)C(=O)N1 (configuration not stated) |  |  |  |  | 0.19 | 0.08 | Activity [7]: Active
4 | O=C1CCC(N2Cc3cc(NCc4cccc5cnccc45)ccc3C2=O)C(=O)N1 (configuration not stated) |  |  |  |  |  |  | Activity [9]: Active
5 | COc1cccc2ccc(CNc3ccc4c(c3)CN(C3CCC(=O)NC3=O)C4=O)cc12 (configuration not stated) |  |  |  |  |  |  | Activity [7]: inactive; Activity [9]: Active
6 | O=C1CCC(N2Cc3cc(NCc4cccc5c4oc4ccccc45)ccc3C2=O)C(=O)N1 (configuration not stated) |  |  |  |  | 0.84 | 0.32 | Activity [7]: Active; Activity [9]: Active
7 | O=C(/C=C/c1ccccc1)Nc1ccc2c(c1)CN(C1CCC(=O)NC1=O)C2=O (configuration not stated) | 13% | 8% | 71% | 60% |  |  | 
8 | O=C1CCC(N2Cc3cc(NCc4ccc5cc(F)ccc5c4)ccc3C2=O)C(=O)N1 (configuration not stated) |  |  |  |  |  |  | Activity [7]: Active; Activity [9]: Active
9 | O=C1CCC(N2Cc3cc(NC(=O)c4cc5ccccc5o4)ccc3C2=O)C(=O)N1 (configuration not stated) | 13% | 2% | 80% | 62% |  |  | solubility [1]: 25 mM (≈ 10.1 mg/mL)
10 | COc1cc2c(OC)cccc2cc1CNc1ccc2c(c1)CN(C1CCC(=O)NC1=O)C2=O (configuration not stated) |  |  |  |  |  |  | Activity [7]: Active
11 | COc1cc(CNc2ccc3c(c2)CN(C2CCC(=O)NC2=O)C3=O)cc2ccccc12 (configuration not stated) |  |  |  |  |  |  | Activity [7]: inactive; Activity [9]: Active
12 | O=C1CCC(N2Cc3cc(NC(=O)c4ccc5ncsc5c4)ccc3C2=O)C(=O)N1 (configuration not stated) | 3% | 0% | 42% | 33% |  |  | 
13 | O=C1CCC(N2Cc3cc(NC(=O)Cc4cccc5ccccc45)ccc3C2=O)C(=O)N1 (configuration not stated) | 97% | 25% | 93% | 64% |  |  | 
14 | O=C1CCC(N2Cc3cc(NC(=O)C4=Cc5ccccc5OC4)ccc3C2=O)C(=O)N1 (configuration not stated) | 15% | 11% | 84% | 66% |  |  | 
15 | O=C1CCC(N2Cc3cc(NC(=O)C4=Cc5ccc(Br)cc5OC4)ccc3C2=O)C(=O)N1 (configuration not stated) | 13% | 22% | 80% | 62% |  |  | solubility ([1]; DMSO, read-out: solubility): 50 mM (≈ 24.8 mg/mL)
16 | O=C1CCC(N2C(=O)c3ccc(NCc4ccc5ccccc5c4)cc3C2=O)C(=O)N1 (configuration not stated) |  |  |  |  | 1.45 | 0.09 | Activity [7]: Active; Activity [9]: inactive
17 | O=C1CCC(N2Cc3cc(NCc4cccc(OCc5ccccc5)c4)ccc3C2=O)C(=O)N1 (configuration not stated) |  |  |  |  | 0.66 | 0.04 | 
18 | O=C1CCC(N2Cc3cc(NCc4cc5ccccc5o4)ccc3C2=O)C(=O)N1 (configuration not stated) |  |  |  |  | 0.76 | 0.13 | 
19 | O=C1CCC(N2Cc3cc(NC(=O)c4ccc5cc(O)ccc5c4)ccc3C2=O)C(=O)N1 (configuration not stated) |  |  | 60% | 55% |  |  | 
20 | COc1ccc(CNc2ccc3c(c2)CN(C2CCC(=O)NC2=O)C3=O)cc1 (configuration not stated) |  |  |  |  | 0.65 | 0.48 | 
21 | COc1cc2ccc(C(=O)Nc3ccc4c(c3)CN(C3CCC(=O)NC3=O)C4=O)cc2cn1 (configuration not stated) |  |  | 88% | 72% |  |  | 
22 | COc1cccc2c1C=C(C(=O)Nc1ccc3c(c1)CN(C1CCC(=O)NC1=O)C3=O)CO2 (configuration not stated) | 39% | 24% | 75% | 59% |  |  | solubility ([1]; DMSO, read-out: solubility): 50 mM (≈ 22.4 mg/mL)
23 | O=C1CCC(N2Cc3cc(NCc4ccc5c(c4)oc4ccccc45)ccc3C2=O)C(=O)N1 (configuration not stated) |  |  |  |  | 0.94 | 0.24 | Activity [7]: Active; Activity [9]: Active
24 | COc1ccc2c(c1)C=C(C(=O)Nc1ccc3c(c1)CN(C1CCC(=O)NC1=O)C3=O)CO2 (configuration not stated) | 16% | 9% | 75% | 66% |  |  | solubility ([1]; DMSO, read-out: solubility): 50 mM (≈ 22.4 mg/mL)
25 | O=C1CCC(N2Cc3cc(NC(=O)C4=Cc5cc(Br)cc(Br)c5OC4)ccc3C2=O)C(=O)N1 (configuration not stated) | 12% | 5% | 49% | 47% |  |  | solubility ([1]; DMSO, read-out: solubility): 50 mM (≈ 28.8 mg/mL)
26 | O=C1CCC(N2Cc3cc(NCc4ccccc4)ccc3C2=O)C(=O)N1 (configuration not stated) |  |  |  |  | 1.04 | 0.59 | 
27 | O=C1CCC(N2Cc3cc(NCc4cccc5ccccc45)ccc3C2=O)C(=O)N1 (configuration not stated) |  |  |  |  | 0.83 | 0.66 | 

Row | SMILES | Activity [2] | Activity [3] | Activity [4] | Activity [5] | Ratio [6] | Ratio [8] | further results
28 | O=C1CCC(N2Cc3cc(NC(=O)c4cccc(Oc5ccccc5)c4)ccc3C2=O)C(=O)N1 (configuration not stated) | 62% | 9% | 74% | 58% |  |  | 
29 | O=C1CCC(N2Cc3cc(NC(=O)c4ccc5c(c4)CCCC5)ccc3C2=O)C(=O)N1 (configuration not stated) | 16% | 1% | 74% | 51% |  |  | 
30 | COc1cc(Br)cc2c1OCC(C(=O)Nc1ccc3c(c1)CN(C1CCC(=O)NC1=O)C3=O)=C2 (configuration not stated) | 13% | 2% | 74% | 65% |  |  | solubility ([1]; DMSO, read-out: solubility): 50 mM (≈ 26.3 mg/mL)
31 | COc1cnc2cc(C(=O)Nc3ccc4c(c3)CN(C3CCC(=O)NC3=O)C4=O)ccc2c1 (configuration not stated) |  |  | 62% | 64% |  |  | microsomal CLint [10]: < 5.4 µL/min/mg; half-life [11]: > 255 min
32 | O=C1CCC(N2Cc3cc(NC(=O)c4ccc5c(c4)OCO5)ccc3C2=O)C(=O)N1 (configuration not stated) | 7% | 5% | 49% | 36% |  |  | 
33 | O=C1CCC(N2Cc3cc(NC(=O)C4=Cc5ccc(C(F)(F)F)cc5OC4)ccc3C2=O)C(=O)N1 (configuration not stated) | 8% | 3% | 70% | 65% |  |  | solubility ([1]; DMSO, read-out: solubility): 50 mM (≈ 24.3 mg/mL)
34 | O=C1CCC(N2Cc3cc(NCCc4ccc5ccccc5c4)ccc3C2=O)C(=O)N1 (configuration not stated) |  |  |  |  | 1.51 | 0.26 | Activity [7]: inactive; Activity [9]: Active
35 | COc1ccc2ccc(CNc3ccc4c(c3)CN(C3CCC(=O)NC3=O)C4=O)cc2c1 (configuration not stated) |  |  |  |  |  |  | Activity [7]: inactive; Activity [9]: Active
36 | O=C1CCC(N2Cc3cc(NCc4ccc5ncccc5c4)ccc3C2=O)C(=O)N1 (configuration not stated) |  |  |  |  |  |  | Activity [9]: Active
37 | O=C1CCC(N2Cc3cc(NCc4ccc5cc(Br)ccc5c4)ccc3C2=O)C(=O)N1 (configuration not stated) |  |  |  |  | 1.41 | 0.73 | 
38 | O=C1CCC(N2Cc3cc(NC(=O)c4cccc(C(=O)c5ccccc5)c4)ccc3C2=O)C(=O)N1 (configuration not stated) | 60% | 9% | 83% | 64% |  |  | 
39 | O=C1CCC(N2Cc3cc(NCc4ccc5ccccc5n4)ccc3C2=O)C(=O)N1 (configuration not stated) |  |  |  |  |  |  | Activity [9]: Active
40 | COc1ccc2c(c1)OCC(C(=O)Nc1ccc3c(c1)CN(C1CCC(=O)NC1=O)C3=O)=C2 (configuration not stated) | 4% | 9% | 57% | 60% |  |  | solubility ([1]; DMSO, read-out: solubility): 50 mM (≈ 22.4 mg/mL)
41 | O=C1CCC(N2Cc3cc(NCc4ccc5ccccc5c4)ccc3C2=O)C(=O)N1 (configuration not stated) |  |  |  |  | 0.36 | 0.15 | Activity [7]: Active
42 | CC(=O)Nc1ccc2c(c1)CN(C1CCC(=O)NC1=O)C2=O (configuration not stated) | 4% | 10% | 17% | 12% |  |  | 
43 | O=C1CCC(N2Cc3cc(NCc4ccc5cc(O)ccc5c4)ccc3C2=O)C(=O)N1 (configuration not stated) |  |  |  |  | 0.84 | 0.54 | 
44 | O=C1CCC(N2Cc3cc(NC(=O)c4ccc(Oc5ccccc5)cc4)ccc3C2=O)C(=O)N1 (configuration not stated) | 5% | 10% | 78% | 61% |  |  | 
45 | O=C1CCC(N2Cc3cc(NC(=O)c4ccc5occc5c4)ccc3C2=O)C(=O)N1 (configuration not stated) | 6% | 2% | 81% | 50% |  |  | 
46 | O=C1CCC(N2Cc3cc(NCc4cccc(Oc5ccccc5)c4)ccc3C2=O)C(=O)N1 (configuration not stated) |  |  |  |  | 0.79 | 0.14 | 
47 | O=C1CCC(N2Cc3cc(NC(=O)C4=COc5ccccc5O4)ccc3C2=O)C(=O)N1 (configuration not stated) | 13% | 0% | 81% | 46% |  |  | 
48 | Cc1ccc2c(c1)OCC(C(=O)Nc1ccc3c(c1)CN(C1CCC(=O)NC1=O)C3=O)=C2 (configuration not stated) | 9% | 14% | 73% | 64% |  |  | solubility ([1]; DMSO, read-out: solubility): 50 mM (≈ 21.6 mg/mL)
49 | COc1ccc2cc(CNc3ccc4c(c3)CN(C3CCC(=O)NC3=O)C4=O)ccc2c1 (configuration not stated) |  |  |  |  | 0.43 | 0.64 | Activity [7]: Active; Activity [9]: Active
50 | O=C1CCC(N2Cc3cc(NCc4ccc5c6c4CC=C4C=CC=C(C=C5)C46)ccc3C2=O)C(=O)N1 (configuration not stated) |  |  |  |  | 0.95 | 0.39 | 
51 | O=C1CCC(N2Cc3cc(NCc4cc5ccccc5cn4)ccc3C2=O)C(=O)N1 (configuration not stated) |  |  |  |  |  |  | Activity [9]: Active
52 | O=C1CCC(N2Cc3cc(NCc4ccc5ccncc5c4)ccc3C2=O)C(=O)N1 (configuration not stated) |  |  |  |  |  |  | Activity [9]: Active
53 | CN(C)c1ccc2cc(CNc3ccc4c(c3)CN(C3CCC(=O)NC3=O)C4=O)ccc2c1 (configuration not stated) |  |  |  |  | 0.74 | 0.65 | Activity [7]: Active; Activity [9]: Active
